Measurements taken from patent US5618836A, “[4-(1,2-epoxycyclohexanyl)but-3-en-1-ynyl]aromatic and heteroaromatic acids and derivatives having retinoid-like biological activity” (Allergan, priority 1995, dated 1997).

tested on: ornithine decarboxylase (ODC); assay: Inhibition of TPA induction of ornithine decarboxylase (ODC) activity; type: in vivo; details: inhibition of TPA-induced ODC; assay essentially per Cancer Res: 1662-1670, 1975
Description: The retinoid-like activity of these compounds is confirmed through the classic measure of retinoic acid activity involving the effects of retinoic acid on ornithine decarboxylase. The original work on the correlation between retinoic acid and decrease in cell proliferation was done by Verma & Boutwell, Cancer Research, 1977, 37,2196-2201. That reference discloses that ornithine decarboxylase (ODC) activity increased precedent to polyamine biosynthesis. It has been established elsewhere that increases in polyamine synthesis can be correlated or associated with cellular proliferation. Thus, if ODC activity could be inhibited, cell hyperproliferation could be modulated. Although all causes for ODC activity increases are unknown, it is known that 12-O-tetradecanoylphorbol-13-acetate (TPA) induces ODC activity.

Point of comparison: `CCOC(=O)c1ccc(C#C/C=C/C23OC2(C)CCCC3(C)C)nc1` (racemic) [Compound 5, Ethyl (±)-6-[(3E)-4-(1,2-Epoxy-2,6,6-trimethylcyclohexanyl)but-3-en-1-ynyl)nicotinate], IC80 1.07 nM. Against it:
- CC1(C)CCCC2(C)OC12/C=C/C#Cc1ccc(C(=O)O)cc1 (racemic) [Compound 1, (±)-4-[(3E)-4-(1,2-Epoxy-2,6,6-trimethylcyclohexan-yl)but-3-en-1-ynyl)]benzoic acid] — 4.5-fold higher, 4.8 nM
- CC1(C)CCCC2(C)OC12/C=C/C#Cc1ccc(C(=O)O)cn1 (racemic) [Compound 4, (±)-6-[(3E)-4-(1,2-Epoxy-2,6,6-trimethylcyclohexan-yl)but-3-en-1-ynyl)]nicotinic acid] — 20-fold higher, 21 nM
- CCOC(=O)c1ccc(C#C/C=C/C23OC2(C)CCCC3(C)C)s1 (racemic) [Compound 6, Ethyl(±)-5-[(3E)-4-(1,2-Epoxy-2,6,6-trimethylcyclohexanyl)but-3-en-1-ynyl)]-2thiophenecarboxylate] — 15-fold higher, 16 nM
- CC1(C)CCCC2(C)OC12/C=C/C#Cc1ccc(C(=O)O)s1 (racemic) [Compound 3, (±)-5-[(3E)-4-(1,2-Epoxy-2,6,6-trimethylcyclohexan-yl)but-3-en-1-ynyl)]-2-thiophenecarboxylic acid] — 21-fold higher, 22.3 nM

tested on: ornithine decarboxylase (ODC); assay: not given; details: in words; background statement; cited from earlier work

In the case of `CC1=C(/C=C/C(C)=C/C=C/C(C)=C/C(=O)O)C(C)(C)CCC1` [Retinoic acid], the “inhibition of induction of ODC activity by TPA” value is given as “inhibits this induction of ODC activity by TPA”.
